Results published in ChEMBL document CHEMBL1155002, “Synthesis of phosphatidylated-monoterpene alcohols catalyzed by phospholipase D and their antiproliferative effects on human cancer cells” (2008).
The source made the active and inactive calls. The rule behind the calls is not given here.

Columns and labels:
PC-3 [1] = assay: Antiproliferative activity against human PC3 cells assessed as cell viability at 100 uM after 72 hrs by WST-1 assay; format: functional, cell-based
PC-3 [2] = assay: Antiproliferative activity against human PC3 cells assessed as reduction of cell viability at 400 uM after 72 hrs by WST-1 assay; format: functional, cell-based
HL-60 [3] = assay: Antiproliferative activity against human HL60 cells at 400 uM by WST-1 assay; format: functional, cell-based
HL-60 [4] = assay: Antiproliferative activity against human HL60 cells by WST-1 assay; format: functional, cell-based; details: TDE = time-dependent effect
PC-3 [5] = assay: Antiproliferative activity against human PC3 cells assessed as reduction of cell viability after 72 hrs by WST-1 assay relative to control; format: functional; design: concentration or dose not given beside the values

Row | SMILES | Activity (PC-3 [1]) | Activity (PC-3 [2]) | Activity (HL-60 [3]) | Activity (HL-60 [4]) | Activity (PC-3 [5])
1 | CC(C)=CCC/C(C)=C/COP(=O)(O)OCC(COC=O)OC=O (configuration not stated) | Active | – | – | – | –
2 | CC(C)=CCC/C(C)=C\COP(=O)(O)OCC(COC=O)OC=O (configuration not stated) | Active | – | – | – | –
3 | CC(C)=CCC/C(C)=C/CO [GERANIOL] | – | inactive | inactive | tde | 10%
4 | CC1(C)C2CC=C(CO)C1C2 (configuration not stated) [MYRTENOL] | – | inactive | inactive | tde | 10%
5 | CC(C)=CCC/C(C)=C\CO [NEROL] | – | inactive | inactive | tde | 10%
6 | C=C(C)[C@@H]1CC=C(CO)CC1 [PERILLYL ALCOHOL] | – | inactive | inactive | tde | 10%
7 | CC1(C)C2CC=C(COP(=O)(O)OCC(COC=O)OC=O)C1C2 (configuration not stated) [PHOSPHATIDYL MYRTENOL] | Active | – | – | – | 10%
8 | C=C(C)C1CC=C(COP(=O)(O)OCC(COC=O)OC=O)CC1 (configuration not stated) [PHOSPHATIDYL PERILLYL ALCOHOL] | Active | – | – | – | 10%
